Measurements: patent US20260137693A1, “CANCER TREATMENTS USING MTA-COOPERATIVE PRMT5 INHIBITORS AND MAT2A INHIBITORS” (AMGEN INC., priority 2022, published 2026)

Columns and labels:
[1] = system: NSCLC cancer cell line CALU1; experiment: Combination of Compound A and Compound B, CellTiter-Glo cell viability, CALU1 (Example 2); type: cell-based; details: CALU1, 6 days, up to 10 μM
Description: NSCLC cancer cell line CALU1 was treated with the combination of Compound A and Compound B for 6 days. Top concentration of Compound A tested was 10 μM with a total of nine 1.9-fold dilutions and DMSO-only control. Top concentration of Compound B tested was 10 μM with a total of five 2-fold dilutions and DMSO-only control. Cell viability was measured by the CellTiter-Glo Luminescence assay. Raw luminescent values were converted to POC with the following equation: POC=100*(Treatment/Vehicle). FIG. 1 represents 1 of the 2 studies conducted. N=2 technical replicates. Mean and standard deviation graphed.

[2] = system: Pancreatic cancer cell line BxPC3; experiment: Combination of Compound A and Compound B, CellTiter-Glo cell viability, BxPC3 (Example 2); type: cell-based; details: BxPC3, 6 days, up to 10 μM
Description: Pancreatic cancer cell line BxPC3 was treated with the combination of Compound A and Compound B for 6 days. Top concentration of Compound A tested was 2 μM with a total of nine 1.9-fold dilutions and DMSO-only control. Top concentration of Compound B tested was 10 μM with a total of five 2-fold dilutions and DMSO-only control. Cell viability was measured by the CellTiter-Glo Luminescence assay. Raw luminescent values were converted to POC with the following equation: POC=100*(Treatment/Vehicle). FIG. 2 represents 1 of the 3 studies conducted. N=2 technical replicates. Mean and standard deviation graphed.

## Nc1nc(=O)n(-c2ccccc2Cl)c2nc(C(F)(F)F)ccc12 [Compound B, 4-amino-1-(2-chlorophenyl)-7-(trifluoromethyl)pyrido[2,3-d]pyrimidin-2(1H)-one]
[1]
  sensitivity of the model to single agent: insensitive
[2]
  sensitivity of the model to single agent: insensitive
